We go through eight compounds from patent US20020035061A1, “COMPOSITIONS AND METHODS FOR TREATING INFECTIONS USING CATIONIC PEPTIDES ALONE OR IN COMBINATION WITH ANTIBIOTICS” (priority 1996, published 2002).

In brackets after ≈: the same amount, converted by molar mass. Several values for one entry are separate records, joined by “and”; a condition that tells them apart may be missing. Equal entries are not always repeated. Where two headings read alike, the source gives them in different places.

Holding throughout (assay type): cell-based
For assay [1], the system named is A. calcoaceticus.
Assay [2] has as its system E. cloacae. Particulars: E. cloacae ECL007.
The test system of assay [3] is E. coli.
The test system of assay [4] is E. faecalis.
Assay [5] relates to K. pneumoniae.
In assay [6] the test system is P. aeruginosa.
In assay [7] the test system is S. aureus.
Assay [8] has as its system S. epidermidis. The conditions noted are these: S. epidermidis SE010.
The subject of assay [9] is S. maltophilia.
The subject of assay [10] is S. marcescens.
Assay [11] concerns bacterial isolates. Kind of assay: microbe, parasite or virus in culture.
The subject of assay [12] is inherently resistant microorganisms. Description: microbe, parasite or virus in culture.
Assay [13] concerns microorganisms with acquired resistance. Kind of assay: microbe, parasite or virus in culture. The conditions noted are these: Pseudomonas aeruginosa, read-out: Amikacin MIC Alone, P. aeruginosa PA022.
Assay [14] relates to vancomycin / teicoplanin resistant enterococci. Description: microbe, parasite or virus in culture.
Where [15] appears, read: Enterococcus faecalis, read-out: Amikacin MIC Alone, E. faecalis EFS008.
Setting [16] is: Enterococcus faecium, read-out: Amikacin MIC Alone, E. faecium EFM004.

Turning to ILRWWVWWVWWRRK [MBI 11F6CN], the MIC in assay [1] (A. calcoaceticus AC002) was 16 µg/mL; in assay [2], 64 µg/mL; in assay [3] (E. coli ECO005), 32 µg/mL; in assay [4] (E. faecalis EFS001), 16 µg/mL; in [4] (E. faecalis EFS008), 16 µg/mL; in [5] (K. pneumoniae KP001) it was 32 µg/mL. For the same compound, the MIC in assay [6] (P. aeruginosa PA004) was 128 µg/mL; in assay [7] (S. aureus SA014), 16 µg/mL; in assay [7] (S. aureus SA093), 8 µg/mL; in assay [8], 8 µg/mL; in assay [9] (S. maltophilia SMA002) it was 64 µg/mL; in assay [10] (S. marcescens SMS003), more than 128 µg/mL.

As to ALRWPWWPWRRK [MBI 11H01CN], the MIC was 2 µg/mL in [1] (A. calcoaceticus AC002); more than 128 µg/mL in assay [2]; 8 µg/mL in assay [3] (E. coli ECO005); 2 µg/mL in [4] (E. faecalis EFS001); 8 µg/mL in [4] (E. faecalis EFS008); 8 µg/mL in assay [5] (K. pneumoniae KP001). The MIC in [6] (P. aeruginosa PA004) was 128 µg/mL; in assay [7] (S. aureus SA014) it was 2 µg/mL; in assay [7] (S. aureus SA093), 1 µg/mL; in assay [8], 2 µg/mL; in assay [9] (S. maltophilia SMA002), 32 µg/mL; in assay [10] (S. marcescens SMS003) it was more than 128 µg/mL.

On to ILPWKWPWWPWRR [MBI 10], for which the MIC is 128 µg/mL in assay [1] (A. calcoaceticus AC001); 128 µg/mL in assay [3] (E. coli ECO002); 8 µg/mL in [4] (E. faecalis EFS004); 128 µg/mL in assay [5] (K. pneumoniae KP001); more than 128 µg/mL in assay [6] (P. aeruginosa PA003); 2 µg/mL in assay [7] (S. aureus SA007). For the same compound, the MIC in assay [9] (S. maltophilia SMA001) is 128 µg/mL; in assay [10] (S. marcescens SMS003), more than 128 µg/mL.

For the compound PRIWKPKWRLPKR [MBI 11J01CN], the MIC is 4 µg/mL in assay [1] (A. calcoaceticus AC002); more than 128 µg/mL in assay [2]; 64 µg/mL in [3] (E. coli ECO005); 128 µg/mL in [4] (E. faecalis EFS001); more than 128 µg/mL in assay [4] (E. faecalis EFS008); more than 128 µg/mL in assay [5] (K. pneumoniae KP001). Besides, the MIC in assay [6] (P. aeruginosa PA004) was more than 128 µg/mL; in [7] (S. aureus SA014), 16 µg/mL; in assay [7] (S. aureus SA093), 2 µg/mL; in [8] it was 32 µg/mL; in [9] (S. maltophilia SMA002), more than 128 µg/mL; in assay [10] (S. marcescens SMS003), more than 128 µg/mL.

For the compound ILKKWPNNPNRRK [MBI 11CNW1], the MIC in [1] (A. calcoaceticus AC002) was 8 µg/mL; in assay [2] it was 64 µg/mL; in assay [3] (E. coli ECO005), 32 µg/mL; in assay [4] (E. faecalis EFS001), 8 µg/mL; in assay [5] (K. pneumoniae KP001), 32 µg/mL; in [6] (P. aeruginosa PA004) it was 64 µg/mL. Besides, the values for the MIC in assay [7] (S. aureus SA010), in [9] (S. maltophilia SMA002) and in [10] (S. marcescens SMS003) were 4 µg/mL, 32 µg/mL and more than 128 µg/mL, respectively.

Consider ILRNPNNPNRRK [MBI 11B7CNF12], for which the MIC was 4 µg/mL in assay [1] (A. calcoaceticus strain AC002); 16 µg/mL in assay [3] (E. coli strain ECO005); 2 µg/mL in assay [4] (E. faecalis strain EFS001); 16 µg/mL in assay [5] (K. pneumoniae strain KP001); more than 128 µg/mL in [6] (P. aeruginosa strain PA004); 64 µg/mL in assay [9] (S. maltophilia strain SMA002). Besides, the MIC in assay [10] (S. marcescens strain SMS003) was more than 128 µg/mL.

For the compound ILKKNPNNPARRK [MBI 11CNX1], the MIC is more than 64 µg/mL in assay [1] (A. calcoaceticus AC001); more than 64 µg/mL in [2]; 64 µg/mL in [3] (E. coli ECO005); 16 µg/mL in assay [4] (E. faecalis EFS004); more than 64 µg/mL in assay [5] (K. pneumoniae KP001); more than 64 µg/mL in assay [6] (P. aeruginosa PA024). For the same compound, the MIC is 2 µg/mL in assay [7] (S. aureus SA006), more than 64 µg/mL in assay [9] (S. maltophilia SMA002) and more than 64 µg/mL in assay [10] (S. marcescens SMS003).

On to `NCC[C@H](O)C(=O)N[C@@H]1C[C@H](N)[C@@H](O[C@H]2O[C@H](CN)[C@@H](O)[C@H](O)[C@H]2O)[C@H](O)[C@H]1O[C@H]1O[C@H](CO)[C@@H](O)[C@H](N)[C@H]1O` [Amikacin], for which the “Amikacin MIC Alone” value was 32 µg/mL in [11] (A. baumannii ABI001); 128 µg/mL in [11] (B. cepacia BC005); 64 µg/mL in [11] (E. faecalis EFS008); more than 128 µg/mL in assay [11] (E. faecium EFM004); 128 µg/mL in assay [11] (P. aeruginosa PA022); 64 µg/mL in assay [11] (S. epidermidis SE003). In addition, the “Amikacin MIC Alone” value in assay [11] (S. maltophilia SMA018) is more than 128 µg/mL; in [11] (S. maltophilia SMA037) it was 64 µg/mL; in assay [14] (E. faecium EFM004), 64 µg/mL and >128 µg/mL. In addition, the MIC in assay [11] (Acinetobacter baumannii, read-out: Amikacin MIC Alone, A. baumannii ABI001) turned out to be 64 µg/mL (≈ 109 µM); in [11] (Acinetobacter baumannii, read-out: Amikacin MIC Alone, A. baumannii ABI003), 16 µg/mL (≈ 27.3 µM); in assay [11] (Burkholderia cepacia, read-out: Amikacin MIC Alone, B. cepacia BC003), 32 µg/mL (≈ 54.6 µM); in assay [11] (Burkholderia cepacia, read-out: Amikacin MIC Alone, B. cepacia BC005), 64 µg/mL (≈ 109 µM); in assay [11] (setting [15]) it was 32 µg/mL (≈ 54.6 µM); in [11] (setting [16]), 128 µg/mL (≈ 219 µM). Also, the MIC stood at 16 µg/mL (≈ 27.3 µM) in assay [11] (Escherichia coli, read-out: Amikacin MIC Alone, E. coli ECO022); 64 µg/mL (≈ 109 µM) in assay [11] (Pseudomonas aeruginosa, read-out: Amikacin MIC Alone, P. aeruginosa PA022); 16 µg/mL (≈ 27.3 µM) in assay [11] (Pseudomonas aeruginosa, read-out: Amikacin MIC Alone, P. aeruginosa PA037); 32 µg/mL (≈ 54.6 µM) in [11] (Staphylococcus aureus, MRSA, read-out: Amikacin MIC Alone, S. aureus SA014 MRSA); 32 µg/mL (≈ 54.6 µM) in assay [11] (Staphylococcus aureus, MRSA, read-out: Amikacin MIC Alone, S. aureus SA025 MRSA); 64 µg/mL (≈ 109 µM) in assay [11] (Staphylococcus epidermidis, read-out: Amikacin MIC Alone, S. epidermidis SE002). For the same compound, the MIC in assay [11] (Staphylococcus epidermidis, read-out: Amikacin MIC Alone, S. epidermidis SE003) is 32 µg/mL (≈ 54.6 µM); in assay [11] (Stenotrophomonas maltophilia, read-out: Amikacin MIC Alone, S. maltophilia SMA018) it was 128 µg/mL (≈ 219 µM); in assay [11] (Stenotrophomonas maltophilia, read-out: Amikacin MIC Alone, S. maltophilia SMA021) it was 128 µg/mL (≈ 219 µM); in assay [11] (Stenotrophomonas maltophilia, read-out: Amikacin MIC Alone, S. maltophilia SMA022) it was more than 128 µg/mL; in [11] (Stenotrophomonas maltophilia, read-out: Amikacin MIC Alone, S. maltophilia SMA036) it was more than 128 µg/mL; in assay [11] (Stenotrophomonas maltophilia, read-out: Amikacin MIC Alone, S. maltophilia SMA037), 128 µg/mL (≈ 219 µM). In addition, the MIC in assay [11] (Stenotrophomonas maltophilia, read-out: Amikacin MIC Alone, S. maltophilia SMA060) was more than 128 µg/mL; in assay [11] (Stenotrophomonas maltophilia, read-out: Amikacin MIC Alone, S. maltophilia SMA063) it was more than 128 µg/mL; in [11] (Stenotrophomonas maltophilia, read-out: Amikacin MIC Alone, S. maltophilia SMA064) it was more than 128 µg/mL; in assay [12] (Acinetobacter baumannii, read-out: Amikacin MIC + Peptide, A. baumannii, peptide Deber A2KA2), 16 µg/mL; in [12] (Acinetobacter baumannii, read-out: Amikacin MIC + Peptide, A. baumannii, peptide MBI 11B16CN) it was 4 µg/mL; in assay [12] (Acinetobacter baumannii, read-out: Amikacin MIC + Peptide, A. baumannii, peptide MBI 27) it was 16 µg/mL. For the same compound, the MIC in [12] (Acinetobacter baumannii, read-out: Amikacin MIC + Peptide, A. baumannii, peptide MBI 29F1) was determined as 16 µg/mL; in assay [12] (Acinetobacter baumannii, read-out: Amikacin MIC Alone, A. baumannii), 32 µg/mL (≈ 54.6 µM); in [12] (Burkholderia cepacia, read-out: Amikacin MIC + Peptide, B. cepacia, peptide MBI 27), 16 µg/mL; in assay [12] (Burkholderia cepacia, read-out: Amikacin MIC + Peptide, B. cepacia, peptide MBI 29A3) it was 16 µg/mL; in assay [12] (Staphylococcus aureus, MRSA, read-out: Amikacin MIC + Peptide, S. aureus MRSA, peptide Deber A2KA2), 0.125 µg/mL; in assay [12] (Staphylococcus aureus, MRSA, read-out: Amikacin MIC + Peptide, S. aureus MRSA, peptide MBI 11B16CN) it was 8 µg/mL. Moreover, the MIC came out at 2 µg/mL in assay [12] (Staphylococcus aureus, MRSA, read-out: Amikacin MIC + Peptide, S. aureus MRSA, peptide MBI 21A2); 16 µg/mL in assay [12] (Staphylococcus aureus, MRSA, read-out: Amikacin MIC + Peptide, S. aureus MRSA, peptide MBI 27); 16 µg/mL in assay [12] (Staphylococcus aureus, MRSA, read-out: Amikacin MIC + Peptide, S. aureus MRSA, peptide MBI 29F1); 32 µg/mL (≈ 54.6 µM) in [12] (Staphylococcus aureus, MRSA, read-out: Amikacin MIC Alone, S. aureus MRSA); 8 µg/mL in assay [12] (Stenotrophomonas maltophilia, read-out: Amikacin MIC + Peptide, S. maltophilia, peptide MBI 11B16CN); 8 µg/mL in assay [12] (Stenotrophomonas maltophilia, read-out: Amikacin MIC + Peptide, S. maltophilia, peptide MBI 21A2). Also, the MIC was determined as 8 µg/mL in assay [12] (Stenotrophomonas maltophilia, read-out: Amikacin MIC + Peptide, S. maltophilia, peptide MBI 26); 8 µg/mL in assay [12] (Stenotrophomonas maltophilia, read-out: Amikacin MIC + Peptide, S. maltophilia, peptide MBI 29A3); 8 µg/mL in [12] (Stenotrophomonas maltophilia, read-out: Amikacin MIC + Peptide, S. maltophilia, peptide MBI 29F1); 128 µg/mL (≈ 219 µM) in [12] (Stenotrophomonas maltophilia, read-out: Amikacin MIC Alone, S. maltophilia); 64 µg/mL (≈ 109 µM) in assay [13]; 64 µg/mL (≈ 109 µM) in assay [14] (setting [15]). Further, the MIC in assay [14] (setting [16]) turned out to be 128 µg/mL (≈ 219 µM); in assay [14] (Enterococcus faecium, read-out: Amikacin MIC Alone, E. faecium EFM020), 32 µg/mL (≈ 54.6 µM). Also, the “Amikacin MIC + Peptide” value in [12] (B. cepacia, peptide MBI 29A3) stood at 32 µg/mL; in assay [12] (S. aureus MRSA, peptide MBI 11B16CN) it was 4 µg/mL; in assay [12] (S. maltophilia, peptide MBI 11B16CN), 4 µg/mL; in assay [12] (S. maltophilia, peptide MBI 21A2) it was 16 µg/mL; in [12] (S. maltophilia, peptide MBI 26), 16 µg/mL; in [12] (S. maltophilia, peptide MBI 29A3), 16 µg/mL.
